Ends that are not written are not given here.
Experiments:
Experiment in all cases: Inhibition-zone assay (CL)
Assay type in all cases: cell-based
[1] = system: Bacillus megaterium CGMCC 1.0459; conditions: BM CGMCC 1.0459, N.A. = no activity at 0.8 nmol peptide each well
Protocol: (§1) The antimicrobial activity of seven peptides, including MeuFSPL-1, MeuFSPL-2, Marmelittin, Melittin, Meucin-22, Marcin-22, and MeuTXKβ1, was evaluated by the inhibition-zone assay previously described in our studies (Hultmark, [1998]; Zhu et al., [2012a]; Zhu and Gao, [2014]). Temperatures used were 30 or 37°C for bacteria or 28°C for fungi. Media used were Luria-Bertani (LB) Broth (10 g tryptone, 5 g yeast extract, and 5 g NaCl in 1 l of water) or Nutrient Broth (10 g peptone, 5 g beef extract powder, and 5 g NaCl in 1 l of water) or GYM(Isp2) (4 g yeast extract, 10 g malt extract, 4 g glucose, 2 g CaCO3 in 1 l of water) for bacteria or Potato Dextrose Broth (200 g patato and 20 g glucose in 1 l of water) for fungi. To make plates, 10 μl of microbial culture (~2 × 10^6 bacterial cells or fungal spores/ml) were mixed in 6 ml of medium containing 0.8% agar and poured into Peri dishes of 9.0 cm diameter. Wells with a diameter of 2 mm were punched into the medium, filled with 2 μl of sample each well. In this assay, three different doses of peptides were applied to three independent wells in one standard bacterial plate. After incubation overnight, inhibition zones were measured and used to calculate lethal concentrations (CL), a concentration just sufficient to inhibit bacterial growth (Hultmark, [1998]; Gao et al., [2009]). CL values are calculated from a plot of d^2 against log n, where d is the diameter (in cm) and n is the amount of sample applied in the well (in nmol). The plot is linear and thus CL can be calculated from the slope (k) and the intercept (m) of this plot. The formula used here is CL = 2.93/ak10^m/k, where “a” is the thickness of the bacterial plate and “CL” is in μM.

[2] = system: Bacillus subtilis CGMCC 1.2428; conditions: BS CGMCC 1.2428, N.A. = no activity at 0.8 nmol peptide each well
Protocol: as §1

[3] = system: Escherichia coli ATCC 25922; conditions: EC ATCC 25922, N.A. = no activity at 0.8 nmol peptide each well
Protocol: as §1

[4] = system: Escherichia coli Am. J16c; conditions: EC Am. J16c, N.A. = no activity at 0.8 nmol peptide each well
Protocol: as §1

[5] = system: Escherichia coli Am. J23a; conditions: EC Am. J23a, N.A. = no activity at 0.8 nmol peptide each well
Protocol: as §1

[6] = system: Escherichia coli CIP. J14b; conditions: EC CIP. J14b, N.A. = no activity at 0.8 nmol peptide each well
Protocol: as §1

[7] = system: Escherichia coli D. G2b; conditions: EC D. G2b, N.A. = no activity at 0.8 nmol peptide each well
Protocol: as §1

[8] = system: Micrococcus luteus CGMCC 1.0290; conditions: ML CGMCC 1.0290, N.A. = no activity at 0.8 nmol peptide each well
Protocol: as §1

[9] = system: Staphylococcus aureus J685; conditions: SA J685, N.A. = no activity at 0.8 nmol peptide each well
Protocol: as §1

[10] = system: Staphylococcus aureus J698; conditions: SA J698, N.A. = no activity at 0.8 nmol peptide each well
Protocol: as §1

[11] = system: Staphylococcus aureus J700; conditions: SA J700, N.A. = no activity at 0.8 nmol peptide each well
Protocol: as §1

[12] = system: Staphylococcus warneri ATCC 1.2824; conditions: SW ATCC 1.2824, N.A. = no activity at 0.8 nmol peptide each well
Protocol: as §1

[13] = system: Stenotrophomonas maltophilia CGMCC 1.1788; conditions: SMAL CGMCC 1.1788, N.A. = no activity at 0.8 nmol peptide each well
Protocol: as §1

[14] = system: Streptococcus mutans ATCC 1.2499; conditions: SM ATCC 1.2499, N.A. = no activity at 0.8 nmol peptide each well
Protocol: as §1

[15] = system: Streptococcus salivarius ATCC 1.2498; conditions: SSAL ATCC 1.2498, N.A. = no activity at 0.8 nmol peptide each well
Protocol: as §1

[16] = system: Streptococcus sanguinis ATCC 1.2497; conditions: SSAN ATCC 1.2497, N.A. = no activity at 0.8 nmol peptide each well
Protocol: as §1

[17] = system: methicillin-resistant Staphylococcus aureus P1374; conditions: MRSA P1374, N.A. = no activity at 0.8 nmol peptide each well
Protocol: as §1

[18] = system: methicillin-resistant Staphylococcus aureus P1386; conditions: MRSA P1386, N.A. = no activity at 0.8 nmol peptide each well
Protocol: as §1

[19] = system: methicillin-resistant coagulase-negative Staphylococcus P1369; conditions: MRCNS P1369, N.A. = no activity at 0.8 nmol peptide each well
Protocol: as §1

[20] = system: methicillin-sensitive Staphylococcus aureus CGMCC 1.89; conditions: MSSA CGMCC 1.89, N.A. = no activity at 0.8 nmol peptide each well
Protocol: as §1

[21] = system: penicillin-resistant Staphylococcus aureus P1383; conditions: PRSA P1383; inhibition-zone assay; N.A. = no activity at 0.8 nmol peptide each well
Protocol: as §1

[22] = system: penicillin-resistant Staphylococcus epidermidis P1389; conditions: PRSE P1389, N.A. = no activity at 0.8 nmol peptide each well
Protocol: as §1

[23] = system: penicillin-sensitive Staphylococcus epidermidis P1111; conditions: PSSE P1111, N.A. = no activity at 0.8 nmol peptide each well
Protocol: as §1

| Substance | Lethal concentration (CL) [1] | Lethal concentration (CL) [2] | Lethal concentration (CL) [3] | Lethal concentration (CL) [4] | Lethal concentration (CL) [5] | Lethal concentration (CL) [6] | Lethal concentration (CL) [7] | Lethal concentration (CL) [8] | Lethal concentration (CL) [9] | Lethal concentration (CL) [10] | Lethal concentration (CL) [11] | Lethal concentration (CL) [12] | Lethal concentration (CL) [13] | Lethal concentration (CL) [14] | Lethal concentration (CL) [15] | Lethal concentration (CL) [16] | Lethal concentration (CL) [17] | Lethal concentration (CL) [18] | Lethal concentration (CL) [19] | Lethal concentration (CL) [20] | other results |
| --- | --- | --- | --- | --- | --- | --- | --- | --- | --- | --- | --- | --- | --- | --- | --- | --- | --- | --- | --- | --- | --- |
| FFGHLFKLATKIIPSLFQRKKE [MUC-22] | 3.72 µM | 1.86 µM | 7.95 µM | 7.49 µM | 7.36 µM | 11.65 µM | 9.93 µM | 2.71 µM | 2.66 µM | 2.66 µM | 2.66 µM | 3.76 µM | 3.79 µM | 2.39 µM | 4.22 µM | 3.37 µM | 0.87 µM | 1.88 µM | 2.21 µM | 1.35 µM | Lethal concentration (CL) [21]: 0.87 µM; Lethal concentration (CL) [22]: 0.56 µM; Lethal concentration (CL) [23]: 1.61 µM |
| FLFSLIPSAISGLISAFKGRRKRDLN-NH2 [MarMEL] | 2.86 µM | 3.13 µM | 6.41 µM | 7.75 µM | 4.69 µM | 8.41 µM | 6.24 µM | 1.85 µM | 8.41 µM | 6.24 µM | 10.86 µM | 0.18 µM | 4.14 µM | 2.85 µM | 4.70 µM | 4.70 µM | 2.60 µM | 8.11 µM | 3.01 µM | 4.87 µM | Lethal concentration (CL) [21]: 2.35 µM; Lethal concentration (CL) [22]: 3.12 µM; Lethal concentration (CL) [23]: 4.24 µM |

Reference: publication PMC5863496, “Mesobuthus Venom-Derived Antimicrobial Peptides Possess Intrinsic Multifunctionality and Differential Potential as Drugs” (Frontiers in Microbiology, 2018)
